# According to patent publication US8258099B2, “Pin1-modulating compounds and methods of use thereof” (Max-Planck-Gesellschaft zur Foerderung der Wissenschaften …, priority 2004, dated 2012):
# Square brackets hold non-standard residues; d marks the D form. Peptide text beside a SMILES is read from it. d(pT) = C[C@H](OP(=O)(O)O)[C@@H](N)C(=O)O; 2Nal = N[C@@H](Cc1ccc2ccccc2c1)C(=O)O; Pip = O=C(O)[C@@H]1CCCCN1
# Experiments:
# XlPin1 = test: Protease free PPIase assay, XlPin1; format: biochemical, X. laevis
# Method: Protein concentrations were determined using the extinction coefficient ε280=21030 M^−1 cm^−1 for hPin1, ε280=6979 M^−1 cm^−1 for the hPin1 PPIase domain, ε280=21030 M^−1 cm^−1 for XlPin1, ε280=8250 M^−1 cm^−1 for hPar14 and ε280=8250 M^−1 cm^−1 for hCyp18. Extinction coefficients were calculated using the program ProtParam Tool at ExPASy (SIB, Switzerland). All measurements were done at 10° C. in 35 mM Hepes buffer (pH 7.8).
# The determination of the kinetic constants of the cis/trans isomerization within the protease-free system was performed using fluorescence based measurements (Garcia-Echeverria et al., 1993, Zhang et al., 2002) on a Hitachi F-3010 fluorescence spectrophotometer with H-Abz-Ala-Glu-Pro-Phe-NH-Np (SEQ ID NO: 2) as substrate. The substrate stock solution was 12 mM in anhydrous trifluoroethanol/0.55 M LiCl. […] The excitation wavelength was 320 nm (spectral bandwidth 3 nm) and emission was detected at 420 nm (spectral bandwidth 10 nm).
# Data analysis was performed by single-exponential nonlinear regression using the SigmaPlot Scientific Graphing System Version 5.00 (Jandel Corp.). […] The rate constant k0 was determined in the absence of Pin1. The first order rate constants kenz was calculated from the equation kenz=kobs−k0. […]
# hPar14 = hPar14 (Homo sapiens, UniProt Q9Y237); test: Protease coupled PPIase assay, hPar14; format: biochemical; settings: up to 50 μM
# Method: FIG. 6 depicts the influence of peptide 17 on the hPar14 PPIase activity. The apparent first order rate constant kobs determined for the cis to trans isomerization of the arginyl-prolyl peptide bond of the substrate Suc-Ala-Arg-Pro-Phe-NH-Np (SEQ ID NO: 3) was measured using the protease coupled PPIase assay. α-Chymotrypsin was used as isomer specific protease. As control, the nonphosphorylated derivative of peptide 17 was used.
# PPIase activities were monitored on a Hewlett-Packard 8452A diode array spectrophotometer according to Fischer et al., 1984 and Zhang et al., 2002. The hPar14 PPIase activity was measured with Suc-Ala-Arg-Pro-Phe-NH-Np (SEQ ID NO: 3) (final concentration 75 μM) as substrate and α-chymotrypsin (final concentration 60 μM) as isomer specific protease. PPIase activity of hCyp 18 and FKBP12 were measured using Suc-Ala-Ala-Pro-Phe-NH-Np (SEQ ID NO: 7) as substrate (final concentration 16 μM) and α-chymotrypsin (final concentration 60 μM) as isomer specific protease. PPIase activity of hPin1 was measured with Ac-Ala-Ala-Ser(PO3H2)-Pro-Arg-NH-Np (SEQ ID NO: 4) (final concentration 10 μM) as substrate and trypsin (final concentration 60 μM) as isomer specific protease. Final concentrations of the PPIases were 1.7 μM for hPar14, 4 nM for hPin1, 7 nM for FKBP12 and 9.7 nM for hCyp18. […] Measurements were monitored at 390 nm. […]
# FKBP12 = FKBP12 (Homo sapiens, UniProt P62942); test: Protease coupled PPIase assay, FKBP12; format: biochemical
# Method: PPIase activities were monitored on a Hewlett-Packard 8452A diode array spectrophotometer according to Fischer et al., 1984 and Zhang et al., 2002. The hPar14 PPIase activity was measured with Suc-Ala-Arg-Pro-Phe-NH-Np (SEQ ID NO: 3) (final concentration 75 μM) as substrate and α-chymotrypsin (final concentration 60 μM) as isomer specific protease. PPIase activity of hCyp 18 and FKBP12 were measured using Suc-Ala-Ala-Pro-Phe-NH-Np (SEQ ID NO: 7) as substrate (final concentration 16 μM) and α-chymotrypsin (final concentration 60 μM) as isomer specific protease. PPIase activity of hPin1 was measured with Ac-Ala-Ala-Ser(PO3H2)-Pro-Arg-NH-Np (SEQ ID NO: 4) (final concentration 10 μM) as substrate and trypsin (final concentration 60 μM) as isomer specific protease. […] Measurements were monitored at 390 nm.
# Data analysis was performed by single-exponential nonlinear regression using the SigmaPlot Scientific Graphing System Version 5.00 (Jandel Corp.). […] The rate constant k0 was determined in the absence of Pin1. The first order rate constants kenz was calculated from the equation kenz=kobs−k0. IC50 and Ki values were determined by fitting the first order rate constants kenz against the concentration of the inhibitory peptide by nonlinear regression according to Schutkowski et al., 1995 or a model for tight binding inhibitors (Morrison, 1969).
# [1] = molecular target: T1, interaction of MPM-2 antigens with GST-hPin1 (Homo sapiens, UniProt Q13526); test: MPM-2 competition assay; format: binding; settings: mitotic HeLa cell lysate, 8 μM GST-hPin1
# T1 construct: made in house
# Method: FIG. 7 depicts the influence of peptide 17 on the interaction of MPM-2 antigens with hPin1. The indicated concentration of peptide 17 or its nonphosphorylated derivative (control) was incubated with an 8 μM solution of GST-hPin1. After addition of mitotic HeLa cell lysate, GST-hPin1 was extracted from the respective mixture using glutathione sepharose. Samples were analyzed regarding extracted GST-hPin1 and coprecipitated MPM-2 antigenes by SDS PAGE and western blot analysis. Untreated lysate of mitotic HeLa cells was loaded on the first line (extract). MPM-2 antigenes were detected using the monoclonal anti MPM-2 antibody (mouse). GST-hPin1 was detected using an anti hPin1 PPIase domain antiserum (rabbit). Horseradish peroxidase-conjugated antibodies from mouse or rabbit were used as secondary antibodies. […]
# 1.3 mM of Peptide 17 or its nonphosphorylated derivative were incubated with GST-hPin1 (8 μM) for 2 hours at 4° C. […] Following SDS-PAGE, the samples were analyzed by western blot analysis. GST-hPin1 and coextracted MPM-2 antigens were detected using an anti hPin1 PPIase domain antiserum (rabbit) or monoclonal anti MPM-2 antibody (Upstate Biotechnology) from mouse. […]
# MPM-2 antigens are mitotic phosphoproteins that are specifically recognized by the monoclonal antibody MPM-2. […] The coextracted MPM-2 antigenes were detected after SDS PAGE by western blot analysis using the anti MPM-2 antibody. […]
# T1 sequence (Q13526 whole entry): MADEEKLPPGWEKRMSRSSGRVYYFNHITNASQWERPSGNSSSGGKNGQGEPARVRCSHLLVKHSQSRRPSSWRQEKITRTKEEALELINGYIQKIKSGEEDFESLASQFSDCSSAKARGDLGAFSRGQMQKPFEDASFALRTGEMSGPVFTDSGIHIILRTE
# hPar14, sequence (Q9Y237 whole entry): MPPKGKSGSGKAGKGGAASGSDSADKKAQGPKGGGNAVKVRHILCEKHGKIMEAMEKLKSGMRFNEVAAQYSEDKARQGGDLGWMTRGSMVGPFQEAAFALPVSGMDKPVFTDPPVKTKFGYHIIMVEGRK
# FKBP12, sequence (P62942 whole entry): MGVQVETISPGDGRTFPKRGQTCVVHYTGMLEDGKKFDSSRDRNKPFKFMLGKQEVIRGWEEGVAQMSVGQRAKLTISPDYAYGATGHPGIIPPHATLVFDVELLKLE
smiles,measurement,setting,value
"CC(=O)N[C@@H](Cc1ccccc1)C(=O)N[C@@H](C(=O)N1CCCC[C@H]1C(=O)N[C@@H](Cc1ccc2ccccc2c1)C(=O)N[C@@H](CCC(N)=O)C(N)=O)[C@H](C)OP(=O)(O)O [Peptide 17, Ac-Phe-D-Thr(PO3H2)-Pip-Nal-Gln-NH2] (Ac-F[d(pT)][Pip][2Nal]Q-NH2)",Ki,"XlPin1; footnote b) (text of footnote not given), probably XlPin1",34.4 nM
same,difference in affinity for recombinant Pin1 of both organisms,XlPin1; hPin1 versus XlPin1,no marked difference
same,inhibition of hPar14 PPIase activity,hPar14,No inhibition
same,inhibition of FKBP12,FKBP12,no inhibition
same,influence on interaction of MPM-2 antigenes with GST-hPin1,[1],did not influence
